The values below come from patent US20230086469A1, “AUTOANTIGENIC PEPTIDES (CALVICIFIV), PRESENTED BY TOLEROGENIC DENTRITIC CELLS, USEFUL FOR THE PERSONALIZED TREATMENT OF RHEUMATOID ARTHRITIS” (UNIVERSIDAD DE CHILE, priority 2019, published 2023).

Type in all cases: cell-based, human
For experiment [1], the system named is autologous CD4+ T cells from patients with RA. The experiment can be described thus: Co-culture of peptide-pulsed Bay-DCs with autologous CFSE-stained CD4+ T cells. The conditions noted are these: Bay-DCs pulsed with peptide in comparison to mDCs, 5 days co-culture; for expression of IFN-γ by CD4+ T lymphocytes: FIG. 4A; for decrease of IL-17 expression by CD4+ T lymphocytes: FIG. 4B. The text has this: (§1) FIGS. 4A-4C. Modulation of antigen-specific CD4+ T cell responses by tDCs generated using different protocols and pulsed with autoantigenic peptides. Two different protocols were used for tDCs generation from peripheral blood monocytes of RA patients: 1) DCs treated with Bay 11-082 (Bay-DCs); and 2) DCs treated with vitamin D3, dexamethasone and LPS (VD3-DCs); mDCs were used as control. DCs were pulsed with previously selected peptides or mixtures of them, using a peptide derived from Aggrecan, as a positive control. Then, DCs were co-cultured with autologous CFSE-stained CD4+ T cells and, after 5 days, 8 the percentage of proliferating CD4+ T cells (CFSElo) expressing IFN-γ (FIG. 4A), IL-17 (FIG. 4B) or TNF-α (FIG. 4C), was evaluated by flow cytometry. The percentage of decrease in the expression of proinflammatory cytokines by CD4+ T cells co-cultured with tDCs in comparison to mDCs was calculated.
In order to evaluate the potential of autoantigenic peptides to load tolerogenic DCs generated from different protocols to modulate antigen-specific CD4+ T cell responses, co-culture assays of tDCs pulsed with autoantigenic peptides and autologous CD4+ T cells from patients with RA were performed. DCs were generated from monocytes according to the protocol described of example 2. To differentiate other tolerogenic dendritic cells types, DCs generated from monocytes were modulated with Bay-11-7982 an irreversible inhibitor of NF-κB (Bay-DCs), or modulated with Vitamin D3, dexamethasone and LPS (VD3-DCs). As control, mature DCs (mDCs) treated only with MPLA were used.
After this, the cells were pulsed with the autoantigenic peptides in the same way as an example 2, independently with the following autoantigenic peptides; 3 peptides derived from vimentin, such as Vimentin-1, Vimentin-1 citrullinated, Vimentin-2 citrullinated, or autoantigenic peptides derived from Fibrinogen, Calreticulin and Fibronectin, Aggrecan, as a positive control was used of the activation of the autologous CD4+ T cells, and un-pulsed DCs were used as a basal activation control. Besides mixtures were considered: Mix 1: Vimentin-1 and Vimentin-1 citrullinated; Mix 2: Vimentin-2 citrullinated and Calreticulin; Mix 3: Mix 1+Mix 2.
(§2) tDCs were then co-cultured with CFSE-stained CD4+ T cells and, after 5 days of culture, the percentage of proliferating CD4+T lymphocytes, expressing IFN-γ, IL-17 and TNF-α, was evaluated by flow cytometry. In each case, the percentage of decrease in the expression of proinflammatory cytokines by CD4+ T cells co-cultured with tDCs in comparison to mDCs was calculated.

Experiment [2] has the same test system. Description: Co-culture of peptide-pulsed VD3-DCs with autologous CFSE-stained CD4+ T cells. As to conditions: VD3-DCs pulsed with peptide in comparison to mDCs; 5 days co-culture; FIG. 4B.
Source text: as §1, with “calculated. […]” for “calculated.”
as §2

For experiment [3] the test system is unchanged. The experiment can be described thus: Co-culture of peptide-pulsed MPLA-tDCs with autologous CFSE-stained CD4+ T cells. As to conditions: MPLA-tDCs pulsed with peptide in comparison to mDCs, 5 days co-culture; for expression of IFN-γ by proliferating CD4+ T lymphocytes: FIG. 3A. The source says: FIGS. 3A-3C Modulation of antigen-specific CD4+ T cell responses by tolerogenic dendritic cells (tDCs) treated with dexamethasone and monophosphoryl lipid A (MPLA-tDCs) and pulsed with autoantigenic peptides. MPLA-tDCs and MPLA-matured DCs (mDCs), as activation control, were generated from peripheral blood monocytes of RA patients, and pulsed with previously selected peptides or mixtures of them, using a peptide derived from Aggrecan, previously described in literature, as a control peptide. Subsequently, DCs were co-cultured with autologous CFSE-stained CD4+ T cells and, after 5 days, the percentage of proliferating CD4+ T cells (CFSElo) expressing IFN-γ (FIG. 3A), L-17 (FIG. 3B) or TNF-α (FIG. 3C) was evaluated by flow cytometry. […] To compare the expression of cytokines induced by each type of DCs, a T test was performed (*p<0.05).
In order to evaluate the ability of tDCs to modulate antigen-specific CD4+ T cell responses, co-culture assays of tDCs pulsed with autoantigenic peptides and autologous CD4+ T cells from patients with RA were performed. DCs were generated from monocytes isolated from peripheral blood of patients with RA, cultured at a concentration of 2-3×10^6 cells/ml in serum-free AIM-V medium in the presence of 500 U/mL of recombinant human interleukin-4 (rhIL-4) and recombinant human […] colony stimulating factor (rhGM-CSF), for 5 days, at 37° C. and 5% CO2. […]
The effect of autoantigenic peptides to modulate effector CD4+ T cell responses of patients with RA, when are presented by tDCs generated using the protocol described in this application. […] DCs were then co-cultured with CFSE-stained CD4+ T cells and, after 5 days of culture, the percentage of proliferating CD4+T lymphocytes, expressing IFN-γ, IL-17 and TNF-α, was evaluated by flow cytometry. In each case, the percentage of decrease in the expression of proinflammatory cytokines by CD4+ T cells co-cultured with tDCs in comparison to mDCs was calculated.

Turning to Calreticulin, the “expression of IFN-γ by CD4+ T lymphocytes” value in experiment [1] was “significantly reduced”. Also, the “decrease of IL-17 expression by CD4+ T lymphocytes” value in experiment [1] and in experiment [2] was “high percentage of decrease” in each case. The “expression of IFN-γ by proliferating CD4+ T lymphocytes” value in experiment [3] is “significantly reduced”.
Take Fibrinogen: the “decrease of IL-17 expression by CD4+ T lymphocytes” value in experiment [1] and in experiment [2] was “high percentage of decrease” each time.
On to Fibronectin, for which the “expression of IFN-γ by CD4+ T lymphocytes” value in experiment [1] is listed as “significantly reduced”. The “expression of IFN-γ by proliferating CD4+ T lymphocytes” value in experiment [3] is given as “significantly reduced”. For the same substance, the “expression of TNF-α by proliferating CD4+ T lymphocytes” value in experiment [3] (FIG. 3C) is “significantly decrease”.
